target: USP1 (Homo sapiens, UniProt O94782); assay: Biochemical Assay for USP1 Inhibition (Ub-Rho 110 fluorescence); conditions: Table 5; 30 min preincubation, Enzyme 0.025 nM, Substrate Ub-Rho 110 25 nM; read-out: IC50 (μm)
Description: The assay was performed in a final volume of 6 μL in assay buffer containing 20 mM Tris-HCl pH 8.0, (1 M Tris-HCl, pH 8.0 solution; Corning 46-031-CM), 1 mM GSH (L-glutathione reduced, Sigma-Aldrich, G4251-100G), 0.03% BGG (0.22 μM filtered, Sigma, G7516-25G), and 0.01% Triton X-100 (Sigma, T9284-10L). Nanoliter quantities of 10-point, 3-fold serial dilution in DMSO were pre-dispensed into 1536 assay plates (Corning, #3724BC) for a final test concentration of 25 μM to 1.3 nM, top to lowest dose, respectively. Concentration and incubation times were optimized for the maximal signal-to-background while maintaining initial velocity conditions at a fixed substrate concentration (<<Km). 3 μL of 2× Enzyme was added to assay plates (pre-stamped with compound), preincubated for 30 min, and then treated with 3 μL of 2× Substrate (Ub-Rho 110, UbiQ-126). Final concentrations of Enzyme and Substrate are 0.025 nM and 25 nM, respectively. Plates were read using a kinetic protocol continuously for 11 min on the Envision (Perkin Elmer) or PheraSTAR (BMG), excitation at 485 nm and emission at 535 nm or excitation at 520 nm and emission at 590 nm. For all assay formats, data were reported as percent inhibition compared with control wells based on the following equation: % inh=100*([…]), where FLU=measured Fluorescence, AveLow=average Fluorescence of no enzyme control (n=32), and AveHigh=average Fluorescence of DMSO control (n=32). IC50 values were determined by curve fitting of the standard 4 parameter logistic fitting algorithm included in the Activity Base software package: TDBS XE Designer Model205. Data is fitted using the Levenburg Marquardt algorithm.
In Table 5, absolute stereochemistry has not been determined for some Compounds. Accordingly, assignment ofany Compounds as the “R” or “S” stereoisomer is arbitrary, unless otherwise noted. In some cases, Compounds are labeled with “1st eluting isomer”, “2nd eluting isomer”, etc. based on the purification method used to separate the stereoisomers.

Chain of USP1 (O94782 whole entry): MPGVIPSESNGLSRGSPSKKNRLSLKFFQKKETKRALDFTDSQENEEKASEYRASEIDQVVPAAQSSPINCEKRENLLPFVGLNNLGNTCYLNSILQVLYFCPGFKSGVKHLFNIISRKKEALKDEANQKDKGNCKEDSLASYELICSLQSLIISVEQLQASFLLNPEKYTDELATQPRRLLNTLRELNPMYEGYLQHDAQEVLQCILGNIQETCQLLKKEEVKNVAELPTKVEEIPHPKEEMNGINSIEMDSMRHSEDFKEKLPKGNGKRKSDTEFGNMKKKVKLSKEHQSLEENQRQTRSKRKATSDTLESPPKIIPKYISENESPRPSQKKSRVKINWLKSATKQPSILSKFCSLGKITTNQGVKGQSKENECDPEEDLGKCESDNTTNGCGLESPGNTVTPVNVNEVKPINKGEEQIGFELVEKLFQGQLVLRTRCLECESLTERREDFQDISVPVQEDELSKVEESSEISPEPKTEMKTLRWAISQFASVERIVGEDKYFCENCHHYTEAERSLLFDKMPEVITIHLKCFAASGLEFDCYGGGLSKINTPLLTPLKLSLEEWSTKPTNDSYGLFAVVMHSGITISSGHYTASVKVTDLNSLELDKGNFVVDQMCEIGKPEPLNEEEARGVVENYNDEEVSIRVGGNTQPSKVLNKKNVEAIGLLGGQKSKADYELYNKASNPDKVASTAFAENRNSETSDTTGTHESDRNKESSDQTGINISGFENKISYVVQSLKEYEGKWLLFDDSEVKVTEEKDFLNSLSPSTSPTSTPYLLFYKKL
Chain of USP1 (Q8TAF3 whole entry partner): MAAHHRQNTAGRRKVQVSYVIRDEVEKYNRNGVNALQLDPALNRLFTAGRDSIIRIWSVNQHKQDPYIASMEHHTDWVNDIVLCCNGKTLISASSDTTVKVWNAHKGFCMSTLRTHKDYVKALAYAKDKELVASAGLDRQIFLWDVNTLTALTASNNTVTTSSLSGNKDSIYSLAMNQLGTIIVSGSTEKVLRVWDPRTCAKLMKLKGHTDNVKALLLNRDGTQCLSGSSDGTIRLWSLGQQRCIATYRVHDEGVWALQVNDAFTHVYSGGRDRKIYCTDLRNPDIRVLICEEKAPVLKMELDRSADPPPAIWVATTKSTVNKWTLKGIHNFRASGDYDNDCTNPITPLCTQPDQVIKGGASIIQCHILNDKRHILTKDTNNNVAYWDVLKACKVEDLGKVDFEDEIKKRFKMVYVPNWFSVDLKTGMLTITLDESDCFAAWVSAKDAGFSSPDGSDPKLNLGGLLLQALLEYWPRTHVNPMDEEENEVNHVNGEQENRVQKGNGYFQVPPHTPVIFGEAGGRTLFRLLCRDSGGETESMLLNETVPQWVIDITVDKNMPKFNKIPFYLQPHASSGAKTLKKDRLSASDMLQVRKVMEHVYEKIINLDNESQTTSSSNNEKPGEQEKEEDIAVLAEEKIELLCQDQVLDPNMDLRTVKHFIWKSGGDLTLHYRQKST

| Structure (SMILES) | IC50 [µM] |
| --- | --- |
| Cc1nc(-c2cccnc2C(C)C)c2n1CCN(c1ccc(C(=O)NCc3ccc(-n4ccc(C(F)(F)F)n4)cc3)cc1)C2 [Compound 53, 4-{3-methyl-1-[2-(propan-2-yl)pyridin-3-yl]-5H,6H,7H,8H-imidazo[1,5-a]pyrazin-7-yl}-N-({4-[3-(trifluoromethyl)-1H-pyrazol-1-yl]phenyl}methyl)benzamide] | 1 to 10 |
| Cc1nc(-c2cccnc2C(C)C)c2n1CCN(c1ccc(-c3cnn(C4CCOCC4)c3)cc1)C2 [Compound 74, 3-(3-methyl-7-{4-[1-(oxan-4-yl)-1H-pyrazol-4-yl]phenyl}-5H,6H,7H,8H-imidazo[1,5-a]pyrazin-1-yl)-2-(propan-2-yl)pyridine] | 10 to 25 |
| CC(C)c1ncccc1-c1ncn2c1CN(c1ccc(-c3nc(C(F)(F)F)cn3C)cc1)CC2 [Compound 4, 3-(7-{4-[1-methyl-4-(trifluoromethyl)-1H-imidazol-2-yl]phenyl}-5H,6H,7H,8H-imidazo[1,5-a]pyrazin-1-yl)-2-(propan-2-yl)pyridine] | ≤ 1 |
| Cc1nc(-c2cccnc2C(C)C)c2n1CCN(c1ccc(C(=O)N(C)C)cc1)C2 [Compound 50, N,N-dimethyl-4-{3-methyl-1-[2-(propan-2-yl)pyridin-3-yl]-5H,6H,7H,8H-imidazo[1,5-a]pyrazin-7-yl}benzamide] | 10 to 25 |
| Cc1nc(-c2cccnc2C(C)C)c2n1CCN(c1ccc(-n3cnnc3)cc1)C2 [Compound 42, 3-{3-methyl-7-[4-(4H-1,2,4-triazol-4-yl)phenyl]-5H,6H,7H,8H-imidazo[1,5-a]pyrazin-1-yl}-2-(propan-2-yl)pyridine] | > 25 |
| CC(C)c1ncccc1-c1nc(C(F)(F)F)n2c1CN(c1ccc(-c3nc(C(F)(F)F)cn3C)cc1)CC2 [Compound 2, 3-(7-{4-[1-methyl-4-(trifluoromethyl)-1H-imidazol-2-yl]phenyl}-3-(trifluoromethyl)-5H,6H,7H,8H-imidazo[1,5-a]pyrazin-1-yl)-2-(propan-2-yl)pyridine] | ≤ 1 |
| Cc1nc(-c2cccnc2C(C)C)c2n1CCN(c1ccc(-c3nc(C(F)(F)F)cn3C)cc1)C2 [Compound 1, 1-(2-isopropylpyridin-3-yl)-3-methyl-7-(4-(1-methyl-4-(trifluoromethyl)-1H-imidazol-2-yl)phenyl)-5,6,7,8-tetrahydroimidazo[1,5-a]pyrazine] | ≤ 1 |
| Cc1nc(-c2cccnc2C(C)C)c2n1CCN(c1cnc(-c3nc(C(F)(F)F)cn3C)cn1)C2 [Compound 79, 2-{3-methyl-1-[2-(propan-2-yl)pyridin-3-yl]-5H,6H,7H,8H-imidazo[1,5-a]pyrazin-7-yl}-5-[1-methyl-4-(trifluoromethyl)-1H-imidazol-2-yl]pyrazine] | ≤ 1 |
| Cc1nc(-c2cccnc2C(C)C)c2n1CCN(c1ccc(N3CCOCC3)cc1)C2 [Compound 30, 4-(4-{3-methyl-1-[2-(propan-2-yl)pyridin-3-yl]-5H,6H,7H,8H-imidazo[1,5-a]pyrazin-7-yl}phenyl)morpholine] | > 25 |
| Cc1nc(-c2cccnc2C(C)C)c2n1CCN(c1ccc(N(C)C)cc1)C2 [Compound 18, N,N-dimethyl-4-{3-methyl-1-[2-(propan-2-yl)pyridin-3-yl]-5H,6H,7H,8H-imidazo[1,5-a]pyrazin-7-yl}aniline] | > 25 |
| Cc1nc(-c2cccnc2OC(F)F)c2n1CCN(c1ccc(-c3nc(C(F)(F)F)cn3C)cc1)C2C (single isomer, unassigned) [Compound 52-2, 2-(difluoromethoxy)-3-[-3,8-dimethyl-7-{4-[1-methyl-4-(trifluoromethyl)-1H-imidazol-2-yl]phenyl}-5H,6H,7H,8H-imidazo[1,5-a]pyrazin-1-yl]pyridine] | 1 to 10 |
| Cc1nc(-c2cccnc2C(C)C)c2n1CCN(c1ccc(-c3nc(Cl)cn3C)cc1)C2 [Compound 68, 3-{7-[4-(4-chloro-1-methyl-1H-imidazol-2-yl)phenyl]-3-methyl-5H,6H,7H,8H-imidazo[1,5-a]pyrazin-1-yl}-2-(propan-2-yl)pyridine] | ≤ 1 |
| Cc1nc(-c2cccnc2C(C)C)c2n1CCN(c1ccc(OCCN3CCOCC3)cc1)C2 [Compound 23, 4-[2-(4-{3-methyl-1-[2-(propan-2-yl)pyridin-3-yl]-5H,6H,7H,8H-imidazo[1,5-a]pyrazin-7-yl}phenoxy)ethyl]morpholine] | 10 to 25 |
| Cc1nc(-c2cccnc2C(C)C)c2n1CCN(c1cnccn1)C2 [Compound 11, 2-{3-methyl-1-[2-(propan-2-yl)pyridin-3-yl]-5H,6H,7H,8H-imidazo[1,5-a]pyrazin-7-yl}pyrazine] | > 25 |
| Cc1nc(-c2cccnc2OCC(F)(F)F)c2n1CCN(c1ccc(-c3nc(C(F)(F)F)cn3C)cc1)C2 [Compound 16, 3-(3-methyl-7-{4-[1-methyl-4-(trifluoromethyl)-1H-imidazol-2-yl]phenyl}-5H,6H,7H,8H-imidazo[1,5-a)pyrazin-1-yl)-2-(2,2,2-trifluoroethoxy)pyridine] | ≤ 1 |
| Cc1cc(Cl)nn1-c1ccc(N2CCn3c(C)nc(-c4cccnc4OC(F)F)c3C2)cc1 [Compound 81, 3-{7-[4-(3-chloro-5-methyl-1H-pyrazol-1-yl)phenyl]-3-methyl-5H,6H,7H,8H-imidazo[1,5-a]pyrazin-1-yl}-2-(difluoromethoxy)pyridine] | ≤ 1 |
| Cc1nc(-c2cccnc2C(C)C)c2n1CCN(c1ncccn1)C2 [Compound 10, 2-{3-methyl-1-[2-(propan-2-yl)pyridin-3-yl]-5H,6H,7H,8H-imidazo[1,5-a]pyrazin-7-yl}pyrimidine] | > 25 |
| Cc1nc(-c2cccnc2C(C)C)c2n1CCN(c1ccc(N3CCCCC3=O)cc1)C2 [Compound 38, 1-(4-{3-methyl-1-[2-(propan-2-yl)pyridin-3-yl]-5H,6H,7H,8H-imidazo[1,5-a]pyrazin-7-yl}phenyl)piperidin-2-one] | > 25 |
| COCCn1cc(C(F)(F)F)nc1-c1ccc(N2CCn3c(C)nc(-c4cccnc4C(C)C)c3C2)cc1 [Compound 63, 3-(7-{4-[1-(2-methoxyethyl)-4-(trifluoromethyl)-1H-imidazol-2-yl]phenyl}-3-methyl-5H,6H,7H,8H-imidazo[1,5-a]pyrazin-1-yl)-2-(propan-2-yl)pyridine] | ≤ 1 |
| Cc1nc(-c2cccnc2C(C)C)c2n1CCN(c1ccc(-c3nc(C(F)(F)F)cn3C)cn1)C2C (centres unmarked) [Compound 86, 2-[3,8-dimethyl-1-[2-(propan-2-yl)pyridin-3-yl]-5H,6H,7H,8H-imidazo[1,5-a]pyrazin-7-yl]-5-[1-methyl-4-(trifluoromethyl)-1H-imidazol-2-yl]pyridine] | ≤ 1 |
| Cc1nc(-c2cccnc2C(C)C)c2n1CCN(c1ccc(-c3nc(C(F)(F)F)cn3C)nc1)C2 [Compound 75, 5-{3-methyl-1-[2-(propan-2-yl)pyridin-3-yl]-5H,6H,7H,8H-imidazo[1,5-a]pyrazin-7-yl}-2-[1-methyl-4-(trifluoromethyl)-1H-imidazol-2-yl]pyridine] | ≤ 1 |
| Cc1nc(-c2cccnc2C(C)C)c2n1CCN(c1ccc(-c3nc(C(F)(F)F)cn3C3CN(C)C3)cc1)C2 [Compound 73, 3-(3-methyl-7-{4-[1-(1-methylazetidin-3-yl)-4-(trifluoromethyl)-1H-imidazol-2-yl]phenyl}-5H,6H,7H,8H-imidazo[1,5-a]pyrazin-1-yl)-2-(propan-2-yl)pyridine] | ≤ 1 |
| COc1nc(-c2cccnc2C(C)C)c2n1CCN(c1ccc(-c3nc(C(F)(F)F)cn3C)cc1)C2 [Compound 84, 3-(3-methoxy-7-{4-[1-methyl-4-(trifluoromethyl)-1H-imidazol-2-yl]phenyl}-5H,6H,7H,8H-imidazo[1,5-a]pyrazin-1-yl)-2-(propan-2-yl)pyridine] | ≤ 1 |
| COc1ccc(N2CCn3c(C)nc(-c4cccnc4C(C)C)c3C2)cn1 [Compound 22, 2-methoxy-5-{3-methyl-1-[2-(propan-2-yl)pyridin-3-yl]-5H,6H,7H,8H-imidazo[1,5-a]pyrazin-7-yl}pyridine] | 10 to 25 |

same assay, conditions: Table 6, additional compounds; 30 min preincubation, Enzyme 0.025 nM, Substrate Ub-Rho 110 25 nM; read-out: IC50

| Structure (SMILES) | IC50 [µM] |
| --- | --- |
| Cc1nc(-c2cccnc2C(C)C)c2n1CCN(c1ccc(-c3nc(C(F)(F)F)cn3C)cc1)C2=O [Compound C-5, 1-(2-isopropylpyridin-3-yl)-3-methyl-7-(4-(1-methyl-4-(trifluoromethyl)-1H-imidazol-2-yl)phenyl)-6,7-dihydroimidazo[1,5-a]pyrazin-8(5H)-one] | > 25 |
| Cc1nc(-c2ccccc2C(C)C)n2cc(N3CCC(c4nc(C(F)(F)F)cn4C)CC3)ccc12 [Compound C-4, 3-(2-isopropylphenyl)-1-methyl-6-(4-(1-methyl-4-(trifluoromethyl)-1H-imidazol-2-yl)piperidin-1-yl)imidazo[1,5-a]pyridine] | > 25 |

— patent publication US20220073525A1, “COMPOSITIONS FOR INHIBITING UBIQUITIN SPECIFIC PROTEASE 1” (FORMA Therapeutics, Inc., priority 2019, published 2022)
